# The source made the active and inactive calls. No cut-off for these calls is given here.
# How the values were obtained:
# [1] = molecular target: T1, Oxysterols receptor LXR-beta (Homo sapiens, UniProt P55055); assay: Transactivation of LXRbeta (unknown origin) expressed in CV1 cells by luciferase reporter gene assay; assay type: cell-based, CV-1
# T1 sequence (P55055 whole entry): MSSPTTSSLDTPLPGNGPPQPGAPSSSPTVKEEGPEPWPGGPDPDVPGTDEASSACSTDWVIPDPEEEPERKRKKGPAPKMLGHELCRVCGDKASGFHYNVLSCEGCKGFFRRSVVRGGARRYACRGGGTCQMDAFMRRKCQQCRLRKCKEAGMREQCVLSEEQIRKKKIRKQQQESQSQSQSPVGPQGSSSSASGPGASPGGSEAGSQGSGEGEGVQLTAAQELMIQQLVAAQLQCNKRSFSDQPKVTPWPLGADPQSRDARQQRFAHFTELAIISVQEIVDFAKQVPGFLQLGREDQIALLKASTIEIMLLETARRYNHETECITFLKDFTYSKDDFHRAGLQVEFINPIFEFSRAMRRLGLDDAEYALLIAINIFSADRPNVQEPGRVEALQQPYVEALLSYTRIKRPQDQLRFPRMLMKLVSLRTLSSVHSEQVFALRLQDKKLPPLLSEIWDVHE
# [2] = molecular target: Retinoic acid receptor RXR-alpha/oxysterols receptor LXR-beta (Homo sapiens, UniProt P55055); assay: Binding affinity to LXRbeta-RXRalpha heterodimer (unknown origin) expressed in insect cells by scintillation proximity assay
# Liver X receptor [3] = molecular target: T2, Liver X receptor (Homo sapiens, UniProt Q13133+P55055); assay: Transactivation of LXR (unknown origin) expressed in human HeLa cells by ABCA1 LXREx3 reporter assay; assay type: cell-based
# T2 sequence (Q13133 whole entry): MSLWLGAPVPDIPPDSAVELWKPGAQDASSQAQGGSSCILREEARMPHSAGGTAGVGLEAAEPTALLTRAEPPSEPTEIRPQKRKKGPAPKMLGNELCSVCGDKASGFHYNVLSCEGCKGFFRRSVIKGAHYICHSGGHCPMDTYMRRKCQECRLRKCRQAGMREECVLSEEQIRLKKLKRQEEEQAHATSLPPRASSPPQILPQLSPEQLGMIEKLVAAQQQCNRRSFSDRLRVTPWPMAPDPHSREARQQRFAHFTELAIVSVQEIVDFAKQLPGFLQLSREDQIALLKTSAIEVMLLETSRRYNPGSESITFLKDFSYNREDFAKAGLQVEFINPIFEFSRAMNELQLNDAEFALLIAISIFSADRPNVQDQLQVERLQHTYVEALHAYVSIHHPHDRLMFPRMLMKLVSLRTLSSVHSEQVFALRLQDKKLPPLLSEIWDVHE
# T2 sequence (P55055 whole entry): T1 sequence (P55055 whole entry)
# [4] = molecular target: Retinoic acid receptor RXR-alpha/oxysterols receptor LXR-alpha (Homo sapiens, UniProt Q13133); assay: Binding affinity to LXRalpha-RXRalpha heterodimer (unknown origin) expressed in insect cells by scintillation proximity assay
# [5] = molecular target: T3, Oxysterols receptor LXR-alpha (Homo sapiens, UniProt Q13133); assay: Transactivation of LXRalpha (unknown origin) expressed in CV1 cells by luciferase reporter gene assay; assay type: cell-based, CV-1
# T3 sequence (Q13133 whole entry): T2 sequence (Q13133 whole entry)
# [6] = Drug uptake in mouse liver at 30 mg/kg, po measured at 24 hrs post dose; assay type: ADME, organism-based; design: dose 30 mg/kg, route oral; conditions: read-out: Drug uptake
# [7] = Plasma concentration in mouse at 30 mg/kg, po measured at 24 hrs post dose; assay type: ADME, organism-based; design: dose 30 mg/kg, route oral
# [8] = molecular target: Liver X receptor (Homo sapiens) (UniProt Q13133+P55055); assay: Transactivation of LXR in human whole blood assessed as induction of ABCA1 after 4 hrs by SYBR-Green quantitative PCR analysis relative to 1-(2,4-difluorobenzyl)-2-oxo-6-(4-phenoxyphenyl)-4-(trifluoromethyl)-1,2-dihydropyridine-3-carbonitrile
# [9] = Plasma concentration in mouse at 30 mg/kg, po measured at 4 hrs post dose; assay type: ADME, organism-based; design: dose 30 mg/kg, route oral
# Liver X receptor [10] = molecular target: T2, Liver X receptor; assay: Transactivation of LXR in human whole blood assessed as induction of ABCA1 after 4 hrs by SYBR-Green quantitative PCR analysis
# Mus musculus [11] = assay: Elevation of hepatic triglyceride in C57BL/6 mouse at 3 to 30 mg/kg for 7 days measured 24 hrs post last dose relative to control; assay type: ADME, organism-based; design: dose 3-30 mg/kg; conditions: in vivo
# Mus musculus [12] = assay: Induction of ABCA1 mRNA induction in C57BL/6 mouse blood cells at 3 to 30 mg/kg for 7 days measured 5 hrs post last dose relative to control; assay type: functional, organism-based
# [13] = Plasma concentration in C57BL/6 mouse at 3 mg/kg, po measured at 5 hrs post dose; assay type: ADME, organism-based; design: dose 3 mg/kg, route oral
# Mus musculus [14] = assay: Elevation of plasma triglyceride in C57BL/6 mouse at 3 to 10 mg/kg for 7 days measured 24 hrs post last dose relative to control; assay type: ADME, organism-based; design: dose 3-10 mg/kg; conditions: in vivo
# Mus musculus [15] = assay: Induction of SREBP1c mRNA in C57BL/6 mouse liver at 10 mg/kg for 7 days measured 24 hrs post last dose relative to control; assay type: organism-based; design: dose 10 mg/kg; conditions: C57BL/6, 24 h, read-out: FC
# Mus musculus [16] = assay: Induction of SREBP1c mRNA in C57BL/6 mouse liver at 30 mg/kg for 7 days measured 24 hrs post last dose relative to control; assay type: organism-based; design: dose 30 mg/kg; conditions: C57BL/6, 24 h, read-out: FC
# [17] = Plasma concentration in C57BL/6 mouse at 30 mg/kg, po measured at 5 hrs post dose; assay type: ADME, organism-based; design: dose 30 mg/kg, route oral
# [18] = Plasma concentration in C57BL/6 mouse at 10 mg/kg, po measured at 5 hrs post dose; assay type: ADME, organism-based; design: dose 10 mg/kg, route oral
# Mus musculus [19] = assay: Induction of ABCG1 mRNA induction in C57BL/6 mouse blood cells at 3 to 30 mg/kg for 7 days measured 5 hrs post last dose relative to control; assay type: functional, organism-based
# Mus musculus [20] = assay: Elevation of plasma triglyceride in C57BL/6 mouse at 30 mg/kg for 7 days measured 24 hrs post last dose relative to control; assay type: ADME, organism-based; design: dose 30 mg/kg; conditions: in vivo
# Mus musculus [21] = assay: Elevation of hepatic triglyceride in C57BL/6 mouse at 30 mg/kg for 7 days measured 24 hrs post last dose relative to control; assay type: ADME, organism-based; design: dose 30 mg/kg; conditions: in vivo
# Retinoic acid receptor RXR-alpha/oxysterols receptor LXR-beta, sequence (P19793 whole entry, one chain of several): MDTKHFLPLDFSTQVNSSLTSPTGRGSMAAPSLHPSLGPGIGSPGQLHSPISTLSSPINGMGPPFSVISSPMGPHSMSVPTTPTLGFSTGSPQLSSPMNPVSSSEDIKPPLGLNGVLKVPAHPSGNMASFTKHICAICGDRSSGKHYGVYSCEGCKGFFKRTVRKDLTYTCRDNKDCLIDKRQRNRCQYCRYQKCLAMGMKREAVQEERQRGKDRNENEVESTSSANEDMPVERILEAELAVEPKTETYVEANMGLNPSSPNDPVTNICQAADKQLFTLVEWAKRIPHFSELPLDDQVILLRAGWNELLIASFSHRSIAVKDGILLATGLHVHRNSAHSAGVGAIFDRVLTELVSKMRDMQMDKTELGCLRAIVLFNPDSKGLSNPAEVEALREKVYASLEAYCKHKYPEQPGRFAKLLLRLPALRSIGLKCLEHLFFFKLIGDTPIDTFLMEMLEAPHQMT
# Retinoic acid receptor RXR-alpha/oxysterols receptor LXR-alpha, sequence (P19793 whole entry, one chain of several): as above
Structure (SMILES),EC50 [1] [nM],Ki [2] [nM],EC50 (Liver X receptor [3]) [nM],Ki [4] [nM],EC50 [5] [nM],concentration at 24 h [6] [µM],concentration at 24 h [7] [nM],Efficacy [8] [%],concentration at 4 h [9] [µM],EC50 (Liver X receptor [10]) [µM],also measured
COC(=O)c1cc(-c2ccc(-c3cccc(S(C)(=O)=O)c3)s2)n(-c2ccccc2Cl)n1,64,10,310,150,65,,,,,,
CC(C)(O)c1cn(-c2ccc(-c3cccc(S(C)(=O)=O)c3)cc2)c(Cc2ccccc2C(F)(F)F)n1,140,7,27,66,200,0.2,20,30,6,3.1,
CS(=O)(=O)c1cccc(-c2ccc(-n3cc(C(F)(F)F)nc3-c3ccccc3Cl)cc2)c1,61,11,5,61,52,32,2300,,1.2,,
CC(C)(O)c1cn(-c2ccc(-c3cccc(S(C)(=O)=O)c3)cc2)c(C(C)(C)c2ccccc2Cl)n1 [BMS-779788],250,14,33,68,230,< 0.05,40,55,5.4,1.2,Activity (Mus musculus [11]): Non-toxic; Activity (Mus musculus [12]): Active; concentration at 5 h [13]: 50 nM; Activity (Mus musculus [14]): Non-toxic; fold induction at 10 mg/kg (Mus musculus [15]): 2.7; fold induction at 30 mg/kg (Mus musculus [16]): 3.5; concentration at 5 h [17]: 2000 nM; concentration at 5 h [18]: 200 nM; Activity (Mus musculus [19]): Active; Activity (Mus musculus [20]): 74%; Activity (Mus musculus [21]): Non-toxic
CC(C)(O)c1cn(-c2ccc(-c3cccc(S(C)(=O)=O)c3)cc2)c(Cc2ccccc2Cl)n1,66,1,12,25,85,1.5,400,62,1.3,3.2,
CS(=O)(=O)c1cccc(-c2ccc(-c3cc(C(F)(F)F)nn3-c3ccccc3Cl)cc2)c1,49,13,13,180,220,7.8,400,49,0.6,0.48,
N#Cc1c(C(F)(F)F)cc(-c2ccc(Oc3ccccc3)cc2)n(Cc2ccc(F)cc2F)c1=O,20,9,7,26,20,,,,,,
CS(=O)(=O)c1cccc(-c2ccc(-c3cc(C(F)(F)F)c(C#N)c(=O)n3Cc3ccc(F)cc3F)s2)c1,2,11,,11,4,,,,,,
CC(C)(O)c1cn(-c2ccc(-c3cccc(S(C)(=O)=O)c3)cc2)c(-c2c(Cl)cccc2Cl)n1,670,54,140,2500,> 10000,4.4,600,38,18.5,7,
CC(C)(O)c1cn(-c2ccc(-c3cccc(S(C)(=O)=O)c3)cc2)c(-c2ccccc2Cl)n1,600,59,140,1600,> 10000,13.2,2000,31,14,8.3,
Cc1cc(CC(=O)O)ccc1-c1ccc(-c2cc(C(F)(F)F)c(C#N)c(=O)n2Cc2ccc(F)cc2F)s1,320,9,40,36,570,,,,,,fold induction at 30 mg/kg (Mus musculus [16]): 7.7; fold change (FC) (Mus musculus [21]): 4.8

# Further lines, with some results ahead:
EC50 [1] [nM],Ki [2] [nM],EC50 (Liver X receptor [3]) [nM],Ki [4] [nM],EC50 [5] [nM],concentration at 24 h [6] [µM],concentration at 24 h [7] [nM],Efficacy [8] [%],concentration at 4 h [9] [µM],EC50 (Liver X receptor [10]) [µM],Structure (SMILES),also measured
620,83,800,1500,540,,,,,,CC(C)(O)c1cc(-c2ccc(-c3cccc(S(C)(=O)=O)c3)s2)n(-c2ccccc2Cl)n1,
14,7,,20,18,,,,,,CS(=O)(=O)c1cccc(-c2ccc(-c3cc(C(F)(F)F)nn3Cc3ccc(F)cc3F)s2)c1,
110,12,9,68,140,,,,,,CS(=O)(=O)c1cccc(-c2ccc(-c3cc(C(F)(F)F)nn3-c3ccccc3Cl)s2)c1,
68,16,8,240,120,,4100,,6.9,,CS(=O)(=O)c1cccc(-c2ccc(-c3cc(C(F)(F)F)nn3-c3ccccc3C(F)(F)F)s2)c1,
230,31,38,300,320,1,300,,6.6,,CS(=O)(=O)c1cccc(-c2cccc(-c3cc(C(F)(F)F)nn3-c3ccccc3Cl)c2)c1,

# From ChEMBL document CHEMBL3351420, “Liver X receptor (LXR) partial agonists: biaryl pyrazoles and imidazoles displaying a preference for LXRβ” (Bioorg Med Chem Lett, 2015)
